Assay results taken from patent US9624214B2, “Amino-substituted imidazo[1,2-a]pyridinecarboxamides and their use” (BAYER PHARMA AKTIENGESELLSCHAFT, priority 2012, dated 2017).
Structures can show the parent of a compound that is named as a salt.

Target: T1, recombinant guanylate cyclase reporter cell line (Rattus norvegicus, UniProt P19686+P20595)
T1 construct: expressed in transfected cells
T1 sequence (P20595 1-619): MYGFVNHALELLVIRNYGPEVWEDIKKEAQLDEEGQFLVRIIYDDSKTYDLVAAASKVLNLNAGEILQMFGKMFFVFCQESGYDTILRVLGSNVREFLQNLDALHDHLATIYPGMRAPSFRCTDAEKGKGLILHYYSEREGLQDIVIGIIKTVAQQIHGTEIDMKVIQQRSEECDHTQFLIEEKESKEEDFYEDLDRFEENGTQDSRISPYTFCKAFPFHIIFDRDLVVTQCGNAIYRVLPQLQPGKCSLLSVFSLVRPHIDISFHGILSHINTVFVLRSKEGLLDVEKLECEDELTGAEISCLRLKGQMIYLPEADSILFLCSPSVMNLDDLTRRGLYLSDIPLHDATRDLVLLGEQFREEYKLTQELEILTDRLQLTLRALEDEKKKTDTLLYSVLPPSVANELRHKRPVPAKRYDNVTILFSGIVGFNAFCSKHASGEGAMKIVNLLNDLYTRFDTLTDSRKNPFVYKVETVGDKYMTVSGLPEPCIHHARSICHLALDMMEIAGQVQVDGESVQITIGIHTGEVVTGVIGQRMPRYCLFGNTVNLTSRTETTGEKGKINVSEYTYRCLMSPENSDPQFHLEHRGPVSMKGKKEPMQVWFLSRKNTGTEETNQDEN
T1 sequence (P19686 1-690): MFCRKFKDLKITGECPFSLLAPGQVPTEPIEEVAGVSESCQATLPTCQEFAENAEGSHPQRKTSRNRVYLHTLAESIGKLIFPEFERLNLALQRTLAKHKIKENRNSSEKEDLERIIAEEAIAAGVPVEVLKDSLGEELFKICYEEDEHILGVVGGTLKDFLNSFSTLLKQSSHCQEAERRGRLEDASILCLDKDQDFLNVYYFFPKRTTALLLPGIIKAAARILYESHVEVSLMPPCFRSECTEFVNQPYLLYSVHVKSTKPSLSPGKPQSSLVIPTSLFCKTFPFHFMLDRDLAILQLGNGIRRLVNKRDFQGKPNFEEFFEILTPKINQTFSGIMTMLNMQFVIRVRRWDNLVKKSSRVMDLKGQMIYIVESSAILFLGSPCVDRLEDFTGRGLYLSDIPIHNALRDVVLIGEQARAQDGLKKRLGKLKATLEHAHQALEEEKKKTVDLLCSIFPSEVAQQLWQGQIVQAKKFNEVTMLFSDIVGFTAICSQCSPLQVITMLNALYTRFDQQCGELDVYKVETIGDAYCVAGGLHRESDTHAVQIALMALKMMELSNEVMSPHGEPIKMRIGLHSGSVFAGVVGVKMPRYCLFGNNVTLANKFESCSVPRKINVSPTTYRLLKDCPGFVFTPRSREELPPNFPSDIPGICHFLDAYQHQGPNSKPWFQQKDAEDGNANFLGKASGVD
Assay: B-2. Action on recombinant guanylate cyclase reporter cell line
Assay type: cell-based
Settings: MEC = minimal effective concentration; in some cases mean values from individual determinations
Procedure, shortened: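 Whole-cell reporter assay with recombinant guanylate cyclase; endpoint = minimal effective concentration.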

| SMILES | MEC [µM] |
| --- | --- |
| Cc1nc2c(OCC3CCCCC3)cccn2c1C(=O)NC(CN)c1ccc(F)c(F)c1 (single isomer, unassigned) [Example 179, ent-N-[2-Amino-1-(3,4-difluorophenyl)ethyl]-8-(cyclohexylmethoxy)-2-methylimidazo[1,2-a]-pyridine-3-carboxamide] | 1.00 |
| Cc1nc2c(OCc3c(F)cccc3F)cccn2c1C(=O)NC12CNCCC1C2 (single isomer, unassigned) [Example 184, ent-N-(3-Azabicyclo[4.1.0]hept-1-yl)-8-[(2,6-difluorobenzyl)oxy]-2-methylimidazo[1,2-a]pyridine-3-carboxamide] | 1.00 |
| Cc1nc2c(OCc3c(F)cccc3F)cccn2c1C(=O)NC12CNCCC1C2 (single isomer, unassigned) [Example 185, ent-N-(3-Azabicyclo[4.1.0]hept-1-yl)-8-[(2,6-difluorobenzyl)oxy]-2-methylimidazo[1,2-a]pyridine-3-carboxamide] | 1.00 |
| Cc1nc2c(OCc3c(F)cccc3F)cc(Cl)cn2c1C(=O)NCC(N)CC(F)(F)F (single isomer, unassigned) [Example 192, ent-N-(2-Amino-4,4,4-trifluorobutyl)-6-chloro-8-[(2,6-difluorobenzyl)oxy]-2-methylimidazo[1,2-a]pyridine-3-carboxamide] | 0.30 |
| Cc1nc2c(OCc3c(F)cccc3F)cc(Cl)cn2c1C(=O)NCC(N)CC(F)(F)F (single isomer, unassigned) [Example 193, ent-N-(2-Amino-4,4,4-trifluorobutyl)-6-chloro-8-[(2,6-difluorobenzyl)oxy]-2-methylimidazo[1,2-a]pyridine-3-carboxamide] | 1.00 |
| CCC(C)(N)CNC(=O)c1c(C)nc2c(OCc3c(F)cccc3F)cc(Cl)cn12 (single isomer, unassigned) [Example 194, ent-N-(2-Amino-2-methylbutyl)-6-chloro-8-[(2,6-difluorobenzyl)oxy]-2-methylimidazo[1,2-a]-pyridine-3-carboxamide] | 0.10 |
| CCC(C)(N)CNC(=O)c1c(C)nc2c(OCc3c(F)cccc3F)cc(Cl)cn12 (single isomer, unassigned) [Example 195, ent-N-(2-Amino-2-methylbutyl)-6-chloro-8-[(2,6-difluorobenzyl)oxy]-2-methylimidazo[1,2-a]-pyridine-3-carboxamide] | 0.30 |
| COCC(C)(N)CNC(=O)c1c(C)nc2c(OCc3c(F)cccc3F)cc(Cl)cn12 (single isomer, unassigned) [Example 196, ent-N-(2-Amino-3-methoxy-2-methylpropyl)-6-chloro-8-[(2,6-difluorobenzyl)oxy]-2-methylimidazo[1,2-a]pyridine-3-carboxamide] | 1.00 |
| COCC(C)(N)CNC(=O)c1c(C)nc2c(OCc3c(F)cccc3F)cc(Cl)cn12 (single isomer, unassigned) [Example 197, ent-N-(2-Amino-3-methoxy-2-methylpropyl)-6-chloro-8-[(2,6-difluorobenzyl)oxy]-2-methylimidazo[1,2-a]pyridine-3-carboxamide] | 1.00 |
| COCC(C)(N)CNC(=O)c1c(C)nc2c(OCc3c(F)cccc3F)cc(C)cn12 (single isomer, unassigned) [Example 198, ent-N-(2-Amino-3-methoxy-2-methylpropyl)-8-[(2,6-difluorobenzyl)oxy]-2,6-dimethylimidazo-[1,2-a]pyridine-3-carboxamide] | 0.30 |
| COCC(C)(N)CNC(=O)c1c(C)nc2c(OCc3c(F)cccc3F)cc(C)cn12 (single isomer, unassigned) [Example 199, ent-N-(2-Amino-3-methoxy-2-methylpropyl)-8-[(2,6-difluorobenzyl)oxy]-2,6-dimethylimidazo-[1,2-a]pyridine-3-carboxamide] | 0.30 |
| CC[C@](C)(N)CNC(=O)c1c(C)nc2c(OCc3c(F)cccc3F)cc(C)cn12 (single isomer, unassigned) [Example 200] | 0.04 |
| Cc1nc2c(OCc3c(F)cccc3F)cccn2c1C(=O)NCC(C)(N)CC(C)C (single isomer, unassigned) [Example 203, ent-N-(2-Amino-2,4-dimethylpentyl)-8-[(2,6-difluorobenzyl)oxy]-2-methylimidazo[1,2-a]pyridine-3-carboxamide] | 0.10 |
| Cc1nc2c(OCc3c(F)cccc3F)cccn2c1C(=O)NCC(C)(N)CC(C)C (single isomer, unassigned) [Example 204, ent-N-(2-Amino-2,4-dimethylpentyl)-8-[(2,6-difluorobenzyl)oxy]-2-methylimidazo[1,2-a]pyridine-3-carboxamide] | 1.00 |
| Cc1nc2c(OCc3c(F)cccc3F)cccn2c1C(=O)NCC(N)C(F)(F)F (single isomer, unassigned) [Example 208, ent-N-(2-Amino-3,3,3-trifluoropropyl)-8-[(2,6-difluorobenzyl)oxy]-2-methylimidazo[1,2-a]-pyridine-3-carboxamide] | 0.30 |
| Cc1nc2c(OCc3c(F)cccc3F)cccn2c1C(=O)NCC(N)C(F)(F)F (single isomer, unassigned) [Example 209, ent-N-(2-Amino-3,3,3-trifluoropropyl)-8-[(2,6-difluorobenzyl)oxy]-2-methylimidazo[1,2-a]-pyridine-3-carboxamide] | 0.30 |
| COCC(CN)NC(=O)c1c(C)nc2c(OCc3c(F)cccc3F)cc(C)cn12 (single isomer, unassigned) [Example 210, ent-N-(1-amino-3-methoxypropan-2-yl)-8-[(2,6-difluorobenzyl)oxy]-2,6-dimethylimidazo[1,2-a]-pyridine-3-carboxamide Trifluoroacetate] | 0.30 |
| Cc1nc2c(OCc3c(F)cccc3F)cc(Cl)cn2c1C(=O)NCC(N)C(C)C (single isomer, unassigned) [Example 211, ent-N-(2-Amino-3-methylbutyl)-6-chloro-8-[(2,6-difluorobenzyl)oxy]-2-methylimidazo[1,2-a]-pyridine-3-carboxamide] | 0.30 |
| Cc1nc2c(OCc3c(F)cccc3F)cc(Cl)cn2c1C(=O)NCC(N)C(C)C (single isomer, unassigned) [Example 212, ent-N-(2-Amino-3-methylbutyl)-6-chloro-8-[(2,6-difluorobenzyl)oxy]-2-methylimidazo[1,2-a]-pyridine-3-carboxamide] | 1.00 |
| COCC(C)(N)CNC(=O)c1c(C)nc2c(OCc3c(F)cccc3F)cccn12 (single isomer, unassigned) [Example 214, ent-N-(2-Amino-3-methoxy-2-methylpropyl)-8-[(2,6-difluorobenzyl)oxy]-2-methylimidazo[1,2-a]-pyridine-3-carboxamide] | 0.30 |
| COCC(C)(N)CNC(=O)c1c(C)nc2c(OCc3c(F)cccc3F)cccn12 (single isomer, unassigned) [Example 215, ent-N-(2-Amino-3-methoxy-2-methylpropyl)-8-[(2,6-difluorobenzyl)oxy]-2-methylimidazo[1,2-a]-pyridine-3-carboxamide] | 1.00 |
| Cc1cc(OCc2c(F)cccc2F)c2nc(C)c(C(=O)NCC(C)(N)CC(C)C)n2c1 (single isomer, unassigned) [Example 219, ent-N-(2-Amino-2,4-dimethylpentyl)-8-[(2,6-difluorobenzyl)oxy]-2,6-dimethylimidazo[1,2-a]-pyridine-3-carboxamide] | 0.30 |
